Columns and labels:
Assay type in all cases: in vivo
[1] = test system: barnyardgrass (Echinochloa crus-galli); test: Test G Pre-Emergence Protocol; details: Echinochloa crus-galli, pre-emergence, 312 h, evaluated after 13 days; for pest or weed control at 15.625 g/ha: 15.625 g ai/ha; for pest or weed control at 15.625 g/ha / pest or weed control at 250 g/ha: read-out: Barnyardgrass damage rating (100=total damage to plant; 0=no damage to plant); for pest or weed control at 62.5 g/ha: 62.5 g ai/ha, 100=total damage to plant, 0=no damage to plant, read-out: Barnyardgrass damage rating; for pest or weed control at 250 g/ha: 250 g ai/ha
How it was run: (§1)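 Scores are visual damage ratings from 0 (no damage) to 100 (total plant kill), taken 13 days after treatment. Compound was sprayed one day post-sowing at 15.625, 62.5 or 250 g/ha in 50:50 acetone/water with 0.5% Tween 20.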

[2] = test system: redroot pigweed (Amaranthus retroflexus); test: Test G Pre-Emergence Protocol; details: Amaranthus retroflexus, pre-emergence, 312 h, evaluated after 13 days; for pest or weed control at 15.625 g/ha: 15.625 g ai/ha; for pest or weed control at 15.625 g/ha / pest or weed control at 250 g/ha: read-out: Pigweed, Redroot damage rating (100=total damage to plant; 0=no damage to plant); for pest or weed control at 62.5 g/ha: 62.5 g ai/ha, 100=total damage to plant, 0=no damage to plant, read-out: Pigweed, Redroot damage rating; for pest or weed control at 250 g/ha: 250 g ai/ha
How it was run: as §1

[3] = test system: giant foxtail (Setaria faberi); test: Test G Pre-Emergence Protocol; details: Setaria faberi, pre-emergence, 312 h, evaluated after 13 days; for pest or weed control at 15.625 g/ha: 15.625 g ai/ha; for pest or weed control at 15.625 g/ha / pest or weed control at 250 g/ha: read-out: Foxtail, Giant damage rating (100=total damage to plant; 0=no damage to plant); for pest or weed control at 62.5 g/ha: 62.5 g ai/ha, 100=total damage to plant, 0=no damage to plant, read-out: Foxtail, Giant damage rating; for pest or weed control at 250 g/ha: 250 g ai/ha
How it was run: as §1

[4] = test system: ivy-leaved morning glory (Ipomoea hederacea); test: Test G Pre-Emergence Protocol; details: Ipomoea, pre-emergence, 312 h, evaluated after 13 days; for pest or weed control at 15.625 g/ha: 15.625 g ai/ha; for pest or weed control at 15.625 g/ha / pest or weed control at 250 g/ha: read-out: Morningglory, Ivy-leaved damage rating (100=total damage to plant; 0=no damage to plant); for pest or weed control at 62.5 g/ha: 62.5 g ai/ha, 100=total damage to plant, 0=no damage to plant, read-out: Morningglory, Ivy-leaved damage rating; for pest or weed control at 250 g/ha: 250 g ai/ha
How it was run: as §1

[5] = test system: velvetleaf (Abutilon theophrasti); test: Test G Pre-Emergence Protocol; details: Abutilon theophrasti, pre-emergence, 312 h, evaluated after 13 days; for pest or weed control at 15.625 g/ha: 15.625 g ai/ha; for pest or weed control at 15.625 g/ha / pest or weed control at 250 g/ha: read-out: Velvetleaf damage rating (100=total damage to plant; 0=no damage to plant); for pest or weed control at 62.5 g/ha: 62.5 g ai/ha, 100=total damage to plant, 0=no damage to plant, read-out: Velvetleaf damage rating; for pest or weed control at 250 g/ha: 250 g ai/ha
How it was run: as §1

corn (Zea mays) [6] = test: Test G Pre-Emergence Protocol; details: Zea mays, pre-emergence, 312 h, evaluated after 13 days; for plant injury at 15.625 g/ha: 15.625 g ai/ha; for plant injury at 15.625 g/ha / plant injury at 250 g/ha: read-out: Corn damage rating (100=total damage to plant; 0=no damage to plant); for plant injury at 62.5 g/ha: 62.5 g ai/ha, 100=total damage to plant, 0=no damage to plant, read-out: Corn damage rating; for plant injury at 250 g/ha: 250 g ai/ha
How it was run: as §1

[7] = test system: barnyardgrass (Echinochloa crus-galli); test: Test G Post-Emergence Protocol; details: Echinochloa crus-galli, post-emergence, 312 h, read-out: Barnyardgrass damage rating; for pest or weed control at 15.625 g/ha: 15.625 g ai/ha, evaluated after 13 days (100=total damage to plant; 0=no damage to plant); for pest or weed control at 62.5 g/ha: 62.5 g ai/ha; for pest or weed control at 62.5 g/ha / pest or weed control at 250 g/ha: evaluated after 13 days, 100=total damage to plant, 0=no damage to plant; for pest or weed control at 250 g/ha: 250 g ai/ha
How it was run: (§2)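 Seedlings grown 8 days in soil in a glasshouse (24/16 °C day/night, 14 h light, 65% humidity) were sprayed post-emergence with compound in acetone/water 50:50 plus 0.5% Tween 20 at 15.625, 62.5 or 250 g/ha. Damage was scored after 13 days on a 0–100 scale (100 = total damage).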

[8] = test system: redroot pigweed (Amaranthus retroflexus); test: Test G Post-Emergence Protocol; details: Amaranthus retroflexus, post-emergence, 312 h, read-out: Pigweed, Redroot damage rating; for pest or weed control at 15.625 g/ha: 15.625 g ai/ha, evaluated after 13 days (100=total damage to plant; 0=no damage to plant); for pest or weed control at 62.5 g/ha: 62.5 g ai/ha; for pest or weed control at 62.5 g/ha / pest or weed control at 250 g/ha: evaluated after 13 days, 100=total damage to plant, 0=no damage to plant; for pest or weed control at 250 g/ha: 250 g ai/ha
How it was run: as §2

[9] = test system: giant foxtail (Setaria faberi); test: Test G Post-Emergence Protocol; details: Setaria faberi, post-emergence, 312 h, read-out: Foxtail, Giant damage rating; for pest or weed control at 15.625 g/ha: 15.625 g ai/ha, evaluated after 13 days (100=total damage to plant; 0=no damage to plant); for pest or weed control at 62.5 g/ha: 62.5 g ai/ha
How it was run: as §2

[10] = test system: ivy-leaved morning glory (Ipomoea hederacea); test: Test G Post-Emergence Protocol; details: Ipomoea, post-emergence, 312 h, read-out: Morningglory, Ivy-leaved damage rating; for pest or weed control at 15.625 g/ha: 15.625 g ai/ha, evaluated after 13 days (100=total damage to plant; 0=no damage to plant); for pest or weed control at 62.5 g/ha: 62.5 g ai/ha; for pest or weed control at 62.5 g/ha / pest or weed control at 250 g/ha: evaluated after 13 days, 100=total damage to plant, 0=no damage to plant; for pest or weed control at 250 g/ha: 250 g ai/ha
How it was run: as §2

[11] = test system: velvetleaf (Abutilon theophrasti); test: Test G Post-Emergence Protocol; details: Abutilon theophrasti, post-emergence, 312 h, read-out: Velvetleaf damage rating; for pest or weed control at 15.625 g/ha: 15.625 g ai/ha, evaluated after 13 days (100=total damage to plant; 0=no damage to plant); for pest or weed control at 62.5 g/ha: 62.5 g ai/ha; for pest or weed control at 62.5 g/ha / pest or weed control at 250 g/ha: evaluated after 13 days, 100=total damage to plant, 0=no damage to plant; for pest or weed control at 250 g/ha: 250 g ai/ha
How it was run: as §2

corn (Zea mays) [12] = test: Test G Post-Emergence Protocol; details: Zea mays, post-emergence, 312 h, read-out: Corn damage rating; for plant injury at 15.625 g/ha: 15.625 g ai/ha, evaluated after 13 days (100=total damage to plant; 0=no damage to plant); for plant injury at 62.5 g/ha: 62.5 g ai/ha; for plant injury at 62.5 g/ha / plant injury at 250 g/ha: evaluated after 13 days, 100=total damage to plant, 0=no damage to plant; for plant injury at 250 g/ha: 250 g ai/ha
How it was run: as §2

[13] = evaluated after 13 days, 100=total damage to plant, 0=no damage to plant

Row | Structure (SMILES) | pest or weed control at 15.625 g/ha [1] [%] | pest or weed control at 62.5 g/ha [1] [%] | pest or weed control at 250 g/ha [1] [%] | pest or weed control at 15.625 g/ha [2] [%] | pest or weed control at 62.5 g/ha [2] [%] | pest or weed control at 250 g/ha [2] [%] | pest or weed control at 15.625 g/ha [3] [%] | pest or weed control at 62.5 g/ha [3] [%] | pest or weed control at 250 g/ha [3] [%] | pest or weed control at 15.625 g/ha [4] [%] | pest or weed control at 62.5 g/ha [4] [%] | pest or weed control at 250 g/ha [4] [%] | pest or weed control at 15.625 g/ha [5] [%] | pest or weed control at 62.5 g/ha [5] [%] | pest or weed control at 250 g/ha [5] [%] | plant injury at 15.625 g/ha (corn (Zea mays) [6]) [%] | plant injury at 62.5 g/ha (corn (Zea mays) [6]) [%] | plant injury at 250 g/ha (corn (Zea mays) [6]) [%] | pest or weed control at 15.625 g/ha [7] [%] | pest or weed control at 62.5 g/ha [7] [%] | further results
1 | CCOc1cc(C2CN(C)C(=O)C2C(=O)Nc2cccc(F)c2F)ccc1Cl (centres unmarked) [Compound 1686] | 40 | 70 | 70 | 0 | 0 | 60 | 60 | 70 | 90 | 0 | 20 | 60 | 0 | 0 | 40 | 10 | 20 | 50 | 30 | 70 | pest or weed control at 250 g/ha [7]: 80%; pest or weed control at 15.625 g/ha [8]: 30%; pest or weed control at 62.5 g/ha [8]: 20%; pest or weed control at 250 g/ha [8]: 40%; pest or weed control at 15.625 g/ha [9]: 60%; pest or weed control at 62.5 g/ha [9, 13]: 70%; pest or weed control at 250 g/ha ([9]; 250 g ai/ha, evaluated after 13 days, 100=total damage to plant, 0=no damage to plant): 80%; pest or weed control at 15.625 g/ha [10]: 20%; pest or weed control at 62.5 g/ha [10]: 20%; pest or weed control at 250 g/ha [10]: 70%; pest or weed control at 15.625 g/ha [11]: 30%; pest or weed control at 62.5 g/ha [11]: 20%; pest or weed control at 250 g/ha [11]: 40%; plant injury at 15.625 g/ha (corn (Zea mays) [12]): 0%; plant injury at 62.5 g/ha (corn (Zea mays) [12]): 10%; plant injury at 250 g/ha (corn (Zea mays) [12]): 60%
2 | CN1C[C@@H](c2cccc(I)c2)[C@H](C(=O)Nc2cccc(F)c2F)C1=O (racemic) [Compound 1754] | 60 | 80 | 90 | 10 | 20 | 60 | 80 | 90 | 90 | 0 | 0 | 10 | 10 | 0 | 30 | 0 | 0 | 80 | 30 | 70 | pest or weed control at 250 g/ha [7]: 80%; pest or weed control at 15.625 g/ha [8]: 0%; pest or weed control at 62.5 g/ha [8]: 40%; pest or weed control at 250 g/ha [8]: 70%; pest or weed control at 15.625 g/ha [9]: 60%; pest or weed control at 62.5 g/ha [9, 13]: 80%; pest or weed control at 15.625 g/ha [10]: 30%; pest or weed control at 62.5 g/ha [10]: 70%; pest or weed control at 250 g/ha [10]: 70%; pest or weed control at 15.625 g/ha [11]: 10%; pest or weed control at 62.5 g/ha [11]: 30%; pest or weed control at 250 g/ha [11]: 60%; plant injury at 15.625 g/ha (corn (Zea mays) [12]): 10%; plant injury at 62.5 g/ha (corn (Zea mays) [12]): 60%; plant injury at 250 g/ha (corn (Zea mays) [12]): 70%

Reference: patent US12077503B2, “Substituted cyclic amides and their use as herbicides” (FMC CORPORATION, priority 2015, dated 2024)
